Experimental findings from patent publication US20260042772A1, “FURO PYRIMIDINE DERIVATES” (Merck Patent GmbH, priority 2022, published 2026) are described below.

pIC50: −log10 of the molar value.

Experiment [1] concerns CQC sensitive strain (NF54) of P. falciparum. The experiment is described as follows: In vitro antiplasmodial activity, Assay B (as described by Vennerstrom et al. 2004). The note with it: Plasmodium falciparum; NF54, Vennerstrom et al. method. The experiment is classed as cell-based. On the procedure:
Compounds were screened against CQC sensitive strain (NF54) of P. falciparum in vitro as described by Vennerstrom et al. (2004). A full dose-response were performed starting at a concentration of 3000 nM, which is then serially diluted 2-fold in complete medium to give 10 concentrations; with the lowest concentration being approximately 6 nM. The same dilution techniques were used for all samples. References were tested at a starting concentration of 1000 ng/mL. The highest concentration of solvent to which the parasites were exposed has no measurable effect on the parasite viability (data not shown).

For experiment [2], the system named is chloroquine sensitive (CQS) strain (NF54) of P. falciparum. Nature of the experiment: In vitro antiplasmodial activity, Assay A (parasite lactate dehydrogenase assay). The experiment is classed as cell-based. The conditions noted are these: Plasmodium falciparum. Here is the method:
Test samples were screened for in vitro antiplasmodial activity against a chloroquine sensitive (CQS) strain (NF54) of the malaria parasite P. falciparum. Continuous in vitro cultures of asexual erythrocyte stages of P. falciparum were maintained using a modified version of the method of Trager and Jensen (1976).1 Quantitative assessment of antiplasmodial activity in vitro was determined via the parasite lactate dehydrogenase assay using a modified method described by Makler (1993). The test samples were tested in triplicate on two separate occasions. Further dilutions were prepared in complete medium on the day of the experiment. Samples were tested as a suspension if not completely dissolved. Chloroquine and artesunate were used as the reference drugs. A full dose-response were performed starting at a concentration of 3000 nM, which is then serially diluted 2-fold in complete medium to give 10 concentrations; with the lowest concentration being approximately 6 nM. The same dilution techniques were used for all samples. References were tested at a starting concentration of 1000 ng/mL. The highest concentration of solvent to which the parasites were exposed has no measurable effect on the parasite viability (data not shown).

Turning to `CC(C)(O)c1cccc(-c2ncnc3cc(-c4ccc(C(=O)N5C[C@H]6C[C@@H]5CO6)cc4)oc23)c1` [Compound D172, ((1R,4R)-2-oxa-5-azabicyclo[2.2.1]heptan-5-yl)(4-(4-(3-(2-hydroxypropan-2-yl)phenyl)furo[3,2-d]pyrimidin-6-yl)phenyl)methanone], the negative logarithm of the IC50 (pIC50) in experiment [1] and in experiment [2] was over 7.82 in each case.
Take `CC(C)(O)c1nccc(-c2ncnc3cc(-c4ccc(C(=O)N5C[C@H]6C[C@@H]5CO6)cc4)oc23)c1F` [Compound D208, ((1R,4R)-2-oxa-5-azabicyclo[2.2.1]heptan-5-yl)(4-(4-(3-fluoro-2-(2-hydroxypropan-2-yl)pyridin-4-yl)furo[3,2-d]pyrimidin-6-yl)phenyl)methanone]: the negative logarithm of the IC50 (pIC50) in experiment [1] and in experiment [2] was over 7.82 each time.
Regarding `C[C@H]1COCCN1C(=O)c1ccc(-c2cc3ncnc(-c4cccc(C(C)(C)O)c4F)c3o2)cc1` [Compound D195, (S)-(4-(4-(2-fluoro-3-(2-hydroxypropan-2-yl)phenyl)furo[3,2-d]pyrimidin-6-yl)phenyl)(3-methylmorpholino) methanone], the pIC50 in experiment [1] and in experiment [2] was over 7.82 throughout.
On to `C[C@@H]1COCCN1C(=O)c1ccc(-c2cc3ncnc(-c4cccc(C(C)(C)O)c4F)c3o2)cc1` [Compound D196, (R)-(4-(4-(2-fluoro-3-(2-hydroxypropan-2-yl)phenyl)furo[3,2-d]pyrimidin-6-yl)phenyl)(3-methylmorpholino) methanone], for which the pIC50 in experiment [1] and in experiment [2] was over 7.82 each time.
Consider `CS(=O)(=O)c1ccc(-c2cc3ncnc(-c4ccnc(N5CC(O)C5)c4)c3o2)cc1` [Compound P1, 1-(4-(6-(4-(methylsulfonyl)phenyl)furo [3,2-d]pyrimidin-4-yl)pyridin-2-yl)azetidin-3-ol], for which the pIC50 in experiment [1] and in experiment [2] was under 7.30 in each case.
As for `CC(C)(O)c1nccc(-c2ncnc3cc(-c4ccc(S(C)(=O)=O)cc4)oc23)c1F` [Compound P31, 2-(3-fluoro-4-(6-(4-(methylsulfonyl)phenyl)furo [3,2-d]pyrimidin-4-yl)pyridin-2-yl)propan-2-ol], the pIC50 in experiment [1] and in experiment [2] was over 7.82 throughout.
Regarding `CC(C)(O)c1cc(-c2ncnc3cc(-c4ccc(C(=O)N5C[C@H]6C[C@@H]5CO6)cc4)oc23)ccn1` [Compound D177, ((1R,4R)-2-oxa-5-azabicyclo[2.2.1]heptan-5-yl)(4-(4-(2-(2-hydroxypropan-2-yl)pyridin-4-yl)furo[3,2-d]pyrimidin-6-yl)phenyl)methanone], the pIC50 in experiment [1] and in experiment [2] was over 7.82 throughout.
For `C[C@@H]1CN(C(=O)c2ccc(-c3cc4ncnc(-c5ccnc(C(C)(C)O)c5)c4o3)cc2)CCO1` [Compound P19, (R)-(4-(4-(2-(2-hydroxypropan-2-yl)pyridin-4-yl)furo[3,2-d]pyrimidin-6-yl)phenyl)(2-methylmorpholino) methanone], the pIC50 in experiment [1] and in experiment [2] was over 7.82 in each case.
For `CC(C)(O)c1nccc(-c2ncnc3cc(-c4ccc(C(=O)N5CCOCC5)cc4)oc23)c1F` [Compound D207, (4-(4-(3-fluoro-2-(2-hydroxypropan-2-yl)pyridin-4-yl)furo[3,2-d]pyrimidin-6-yl)phenyl)(morpholino) methanone], the pIC50 in experiment [1] and in experiment [2] was over 7.82 in each case.
Take `C[C@@H]1CN(C(=O)c2ccc(-c3cc4ncnc(-c5ccnc(C(C)(C)O)c5)c4o3)cc2)C[C@H](C)O1` [Compound P17, ((2S,6R)-2,6-dimethylmorpholino)(4-(4-(2-(2-hydroxypropan-2-yl)pyridin-4-yl)furo[3,2-d]pyrimidin-6-yl)phenyl)methanone]: the pIC50 was over 7.82 in experiment [1] and under 7.30 in experiment [2].
Take `CC(C)(O)c1cc(-c2ncnc3cc(-c4ccc(C(=O)N5C[C@@H]6C[C@H]5CO6)cc4)oc23)ccn1` [Compound D176, ((1S,4S)-2-oxa-5-azabicyclo[2.2.1]heptan-5-yl)(4-(4-(2-(2-hydroxypropan-2-yl)pyridin-4-yl)furo[3,2-d]pyrimidin-6-yl)phenyl)methanone]: the pIC50 in experiment [1] and in experiment [2] was over 7.82 in each case.
For the molecule `C[C@@H]1CN(C(=O)c2ccc(-c3cc4ncnc(-c5cccc(C(C)(C)O)c5F)c4o3)cc2)C[C@H](C)O1` [Compound P20, ((2S,6R)-2,6-dimethylmorpholino)(4-(4-(2-fluoro-3-(2-hydroxypropan-2-yl)phenyl)furo[3,2-d]pyrimidin-6-yl)phenyl)methanone], the negative-log IC50 (pIC50) in experiment [1] and in experiment [2] was over 7.82 throughout.
Turning to `C[C@@H]1CN(C(=O)c2ccc(-c3cc4ncnc(-c5cccc(C(C)(C)O)c5F)c4o3)cc2)CCO1` [Compound D192, (R)-(4-(4-(2-fluoro-3-(2-hydroxypropan-2-yl)phenyl)furo[3,2-d]pyrimidin-6-yl)phenyl)(2-methylmorpholino) methanone], the pIC50 in experiment [1] and in experiment [2] was over 7.82 in each case.
Take `CC(C)(O)c1cc(-c2ncnc3cc(-c4ccc(C5(C(=O)N6C[C@H]7C[C@@H]6CO7)CC5)cc4)oc23)ccn1` [Compound P24, ((1R,4R)-2-oxa-5-azabicyclo[2.2.1]heptan-5-yl)(1-(4-(4-(2-(2-hydroxypropan-2-yl)pyridin-4-yl)furo[3,2-d]pyrimidin-6-yl)phenyl)cyclopropyl) methanone]: the pIC50 in experiment [1] and in experiment [2] was under 7.30 each time.
In the case of `CC(C)(O)c1cccc(-c2ncnc3cc(-c4ccc(C(=O)N5C[C@@H]6C[C@H]5CO6)cc4)oc23)c1` [Compound D174, ((1S,4S)-2-oxa-5-azabicyclo[2.2.1]heptan-5-yl)(4-(4-(3-(2-hydroxypropan-2-yl)phenyl)furo[3,2-d]pyrimidin-6-yl)phenyl)methanone], the negative logarithm of the IC50 (pIC50) in experiment [1] and in experiment [2] was over 7.82 throughout.
For the molecule `CC1CN(C(=O)c2ccc(-c3cc4ncnc(-c5ccnc(C(C)(C)O)c5)c4o3)cc2)CC(C)O1` (stereo not drawn) [Compound D161, (2,6-dimethylmorpholino)(4-(4-(2-(2-hydroxypropan-2-yl)pyridin-4-yl)furo[3,2-d]pyrimidin-6-yl)phenyl)methanone], the pIC50 in experiment [1] and in experiment [2] was over 7.82 each time.
As for `CC(C)(O)c1cccc(-c2ncnc3cc(-c4ccc(C(=O)N5C[C@H]6C[C@@H]5CO6)cc4)oc23)c1F` [Compound P21, ((1R,4R)-2-oxa-5-azabicyclo[2.2.1]heptan-5-yl)(4-(4-(2-fluoro-3-(2-hydroxypropan-2-yl)phenyl)furo[3,2-d]pyrimidin-6-yl)phenyl)methanone], the pIC50 in experiment [1] and in experiment [2] was over 7.82 each time.
As to `C[C@@H]1COCCN1C(=O)c1ccc(-c2cc3ncnc(-c4ccnc(C(C)(C)O)c4)c3o2)cc1` [Compound D160, (R)-(4-(4-(2-(2-hydroxypropan-2-yl)pyridin-4-yl)furo[3,2-d]pyrimidin-6-yl)phenyl)(3-methylmorpholino) methanone], the values for the pIC50 in experiment [1] and in experiment [2] were over 7.82 and 7.30 to 7.82, respectively.
For the molecule `C[C@@H]1CN(C(=O)c2ccc(-c3cc4ncnc(-c5cccc(C(C)(C)O)c5F)c4o3)cc2)C[C@@H](C)O1` [Compound D193, ((2R,6R)-2,6-dimethylmorpholino)(4-(4-(2-fluoro-3-(2-hydroxypropan-2-yl)phenyl)furo[3,2-d]pyrimidin-6-yl)phenyl)methanone], the pIC50 in experiment [1] and in experiment [2] was over 7.82 throughout.
In experiment [2], `CC(C)(O)c1cccc(-c2ncnc3cc(-c4ccc(C(=O)N5CCOCC5)cc4)oc23)c1` [Compound P13, (4-(4-(3-(2-hydroxypropan-2-yl)phenyl)furo[3,2-d]pyrimidin-6-yl)phenyl)(morpholino) methanone] had a negative-log IC50 (pIC50) of under 7.30.
Still for that read-out and setting: the same measure for `CC(C)(O)c1cccc(-c2ncnc3cc(-c4ccc(S(N)(=O)=O)cc4)oc23)c1F` [Compound P33, 4-(4-(2-fluoro-3-(2-hydroxypropan-2-yl)phenyl)furo[3,2-d]pyrimidin-6-yl)benzenesulfonamide]: 7.30 to 7.82.
As to `C[C@H]1CN(C(=O)c2ccc(-c3cc4ncnc(-c5ccnc(C(C)(C)O)c5)c4o3)cc2)CCO1` [Compound P18, (S)-(4-(4-(2-(2-hydroxypropan-2-yl)pyridin-4-yl)furo[3,2-d]pyrimidin-6-yl)phenyl)(2-methylmorpholino) methanone], the negative-log IC50 (pIC50) in experiment [1] is over 7.82; in experiment [2], 7.30 to 7.82.
As for `C[C@H]1CN(C(=O)c2ccc(-c3cc4ncnc(-c5cccc(C(C)(C)O)c5F)c4o3)cc2)C[C@H](C)O1` [Compound D194, ((2S,6S)-2,6-dimethylmorpholino)(4-(4-(2-fluoro-3-(2-hydroxypropan-2-yl)phenyl)furo[3,2-d]pyrimidin-6-yl)phenyl)methanone], the negative-log IC50 (pIC50) in experiment [1] and in experiment [2] was over 7.82 each time.
Consider `CC(C)(C)OC(=O)c1ccc(-c2cc3ncnc(-c4ccnc(C(C)(C)O)c4)c3o2)cc1` [Compound D162, tert-butyl 4-(4-(2-(2-hydroxypropan-2-yl)pyridin-4-yl)furo[3,2-d]pyrimidin-6-yl)benzoate], for which the negative logarithm of the IC50 (pIC50) in experiment [2] was over 7.82.

For orientation: pIC50 means the IC50 on a negative log10 scale, so that one unit is a factor of ten.
